In article PMC5996983 (Environmental science & technology, 2017):

Key:
[1] = system: embryonic zebrafish (Danio rerio); test: Embryonic zebrafish developmental toxicity bioassay; details: for developmental toxicity to embryonic zebrafish: single compound standards, nominal 0.01 – 60 µM, exposure 6–120 hpf; for relative order of mean EC50: single standards, 120 hpf
alkene monooxygenase = test: Inhibition of PHE transformation in ELW1 by 1-octyne; assay type: cell-based, Mycobacterium sp. strain ELW1; details: ~7 µmol 1-octyne in the aqueous media
[2] = system: Mycobacterium sp. strain ELW1; test: PHE transformation by ELW1, resting cell tests
[3] = system: Mycobacterium sp. strains PYRGCK, JS19b1, czh-3, czh-117; details: cited from earlier work
Pasteurella spp. = details: cited from earlier work
Mycobacterium sp. PYR-1 = details: cited from earlier work
Mycobacterium sp. A1-PYR = details: cited from earlier work
[4] = 96-well plates ref 64; cited from earlier work
[5] = cited from earlier work

Compound: O[C@@H]1c2ccccc2-c2ccccc2[C@H]1O (relative stereo) [trans-9,10-OHPHE, trans-9,10-dihydroxy-9,10-dihydrophenanthrene]
- developmental toxicity to embryonic zebrafish [1]: not toxic

Compound: Oc1cc2c(O)cccc2c2ccccc12 [1,9-OHPHE, 1,9-dihydroxyphenanthrene]
- developmental toxicity to embryonic zebrafish [1]: toxic
- relative order of mean EC50 [1]: most toxic

Compound: Oc1cccc2c1ccc1ccccc12 [1-OHPHE, 1-hydroxyphenanthrene]
- developmental toxicity to embryonic zebrafish [1]: toxic
- relative order of mean EC50 [1]: least toxic

Compound: C#CCCCCCC [1-Octyne, 1-octyne]
- inhibition of PHE degradation (alkene monooxygenase): effectively, but not completely, inhibited

Compound: Oc1ccc2ccc3ccccc3c2c1 [3-OHPHE, 3-hydroxyphenanthrene]
- developmental toxicity to embryonic zebrafish [1]: toxic

Compound: Oc1cccc2ccc3ccccc3c12 [4-OHPHE, 4-hydroxyphenanthrene]
- developmental toxicity to embryonic zebrafish [1]: toxic

Compound: Oc1cc2ccccc2c2ccccc12 [9-OHPHE, 9-hydroxyphenanthrene]
- developmental toxicity to embryonic zebrafish [1]: toxic

Compound: c1ccc2c(c1)ccc1ccccc12 [PHE, phenanthrene]
- first-order PHE transformation rate, kPHE ([2]; 1-octyne controls): 0.015 to 0.10 h⁻¹
- half-life, t1/2 ([2]; 1-octyne controls): 7.0 to 47 h
- half-life, t1/2 ([2]; PHE-exposed cells): 1.4 to 4.3 h
- zero-order transformation rate [3]: −0.0020 to −0.019 µmol hr^−1
- non-normalized first-order rate of PHE transformation (Pasteurella spp.): -0.0005 h⁻¹
- non-normalized first-order rate of PHE transformation (Mycobacterium sp. PYR-1): -0.0015 h⁻¹
- zero-order transformation rate (Mycobacterium sp. A1-PYR): -0.019 µmol/h
- sorptive losses in test system [4]: less than 10%
- water solubility [5]: ~ 7 µM
